Several values for one entry are separate records, joined by “and”; a condition that tells them apart may be missing. Equal entries are not always repeated.
Tests used:
Caco-2 cells = test: Caco-2 cell permeability assay; format: in vitro ADME; conditions: 100 µM, AP to BL, 2 h; mean ± SD of quadruplicates
Experimental: Caco-2 cells were seeded in Transwell® polycarbonate filter at a density of 8 × 10^4 cells/filter and cultured for 21 days. Culture medium was removed from both apical (AP) and basolateral (BL) chambers of transwell, and the wells were rinsed three times with PBS. AP buffer (HBSS, pH 6.5) containing 10 mM MES and BL buffer (HBSS, pH 7.4) containing 10 mM HEPES were loaded in AP (500 µL) and BL (1500 µL) chambers, respectively, followed by incubation for 30 min at 37 °C. Then, test compound (100 µM) was added to the AP side and incubated for 2 h at 37 °C. After the incubation, BL buffer was collected and analysed using an UV spectrophotometer at a maximum wavelength (wavelength 225–357 nm).
To estimate oral absorption of target compounds, their permeability in a Caco-2 monolayer was evaluated at a concentration of 100 µM (Table 1).

[1] = tested on: TGF-β1-induced luciferase reporter activity, HaCaT (3TP-luc) stable cells; test: Cell-based p3TP-luciferase reporter assay; conditions: for IC50: Homo sapiens, HaCaT, read-out: IC50 for p3TP-luciferase
Experimental: To establish HaCaT (3TP-luc) stable cells, cells were seeded on six-well plates. Cells were allowed to adhere overnight and then transfected with the p3TP-luc (neo) expression plasmid using PEI reagent (Sigma Aldrich). Transfected cells were cultured for four weeks in the presence of G418 (500 µg/mL). Several single clones were isolated and measured luciferase activity. The clone showing response to TGF-β1 treatment was used for reporter assay. HaCaT (3TP-luc) stable cells were seeded at 2.5 × 10^4 cells/well in 96-well plate and were allowed to adhere overnight. Cells were concomitantly treated with TGF-β1 (2 ng/mL) and indicated concentrations of ALK5 inhibitors in 0.2% FBS medium and incubated for 24 h at 37 °C in 5% CO2. Cell lysates were prepared using Luciferase Assay System (Promega) according to the manufacturer’s instruction, and luminescence was measured by a luminometer, Micro Lumat Plus (Berthold, Germany).

[2] = molecular target: T1, purified human ALK5 kinase domain (Homo sapiens, UniProt P36897); test: ALK5 kinase assay (33PanQinase, casein as substrate); format: biochemical; conditions: casein substrate, 1 μM ATP; singlicate (11e: mean of triplicates)
T1 construct: using the purified human ALK5 kinase domain produced in Sf9 insect cells; host or cells: Sf9 insect cells
T1 sequence (P36897 205-495 limits assumed): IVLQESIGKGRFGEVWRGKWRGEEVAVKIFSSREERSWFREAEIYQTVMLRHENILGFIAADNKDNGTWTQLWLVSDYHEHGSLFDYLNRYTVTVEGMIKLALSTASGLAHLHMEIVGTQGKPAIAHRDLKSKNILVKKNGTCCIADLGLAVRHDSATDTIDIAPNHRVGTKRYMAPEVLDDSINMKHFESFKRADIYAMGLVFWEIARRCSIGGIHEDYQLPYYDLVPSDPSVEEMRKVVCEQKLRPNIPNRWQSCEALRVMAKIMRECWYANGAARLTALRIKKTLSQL
Experimental: To evaluate whether these potential inhibitors 7a–c, 11a–h, and 16a–h could inhibit ALK5, a kinase assay was performed using the purified human ALK5 kinase domain produced in Sf9 insect cells and casein as a substrate (Table 1).

ALK5 [3] = molecular target: T2, ALK5 (Homo sapiens, UniProt P36897)
T2 sequence (P36897 34-503): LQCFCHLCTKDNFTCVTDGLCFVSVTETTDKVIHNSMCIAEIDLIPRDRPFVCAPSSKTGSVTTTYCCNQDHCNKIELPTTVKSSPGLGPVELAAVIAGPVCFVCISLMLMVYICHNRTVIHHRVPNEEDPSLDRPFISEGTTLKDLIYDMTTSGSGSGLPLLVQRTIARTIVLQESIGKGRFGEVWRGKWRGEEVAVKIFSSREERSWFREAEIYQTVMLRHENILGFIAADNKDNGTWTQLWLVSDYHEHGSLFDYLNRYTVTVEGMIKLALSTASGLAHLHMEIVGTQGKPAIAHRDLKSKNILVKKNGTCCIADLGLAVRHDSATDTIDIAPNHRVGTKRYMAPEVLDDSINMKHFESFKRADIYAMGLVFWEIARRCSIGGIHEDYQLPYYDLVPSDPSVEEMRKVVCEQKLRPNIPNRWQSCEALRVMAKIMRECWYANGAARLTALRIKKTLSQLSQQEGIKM

[4] = tested on: panel of 28 protein kinases; conditions: panel of 28 protein kinases (19 serine/threonine, 9 tyrosine kinases)
Text: Because ALK5 is a serine/threonine kinase, we chose 19 serine/threonine kinases including ALK5 and an ALK family kinase, ACV-R1 (ALK5, ACV-R1, Aurora-A, ARK5, B-Raf, CK2α1, COT, DAPK1, IRAK4, JNK3, MAPKAPK5, MST4, NEK2, NLK, PAK1, PIM1, PRK1, S6K, SGK1) and 9 tyrosine kinases (ABL1, CSK, FGF-R1, FLT3, IGF1-R, PDGFR-α, SRC, VEGF-R1, ZAP70).

p38α = p38α (Homo sapiens, UniProt Q16539); test: p38α kinase assay (33PanQinase, ATF2 as substrate); format: biochemical; conditions: for IC50: ATF2 substrate, mean of duplicates
p38α, sequence (Q16539 whole entry): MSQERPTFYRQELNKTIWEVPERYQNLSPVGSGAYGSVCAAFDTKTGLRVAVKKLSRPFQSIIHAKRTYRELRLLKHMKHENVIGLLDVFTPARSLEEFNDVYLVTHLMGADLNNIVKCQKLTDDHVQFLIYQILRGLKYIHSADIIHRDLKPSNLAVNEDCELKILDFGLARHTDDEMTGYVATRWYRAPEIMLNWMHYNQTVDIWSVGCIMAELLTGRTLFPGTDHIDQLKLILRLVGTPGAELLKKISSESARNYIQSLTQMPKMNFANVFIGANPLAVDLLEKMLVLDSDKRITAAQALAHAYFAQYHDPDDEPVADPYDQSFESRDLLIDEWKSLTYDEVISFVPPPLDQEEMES

ALK5 [5] = conditions: cited from earlier work
[6] = rats; cited from earlier work
ALK5 [7] = conditions: cited from earlier work; remark: listed apart in the source

Compound | Caco-2 permeability (%) (Caco-2 cells) | % inhibition in luciferase reporter assay ([1]; 0.1 µM inhibitor) | p3TP-luciferase activity (% control) ([1]; 0.1 μM inhibitor, TGF-β1 2 ng/mL, 24 h, mean ± SD of three independent experiments) | IC50 [1] | IC50 [2] | fold higher potency compared to galunisertib (ALK5 [3]; ALK5 kinase assay) | IC50 (ALK5 [3]; read-out: IC50 for ALK5, GSK3 (14–27) substrate, 1 μM ATP, mean of duplicates) | Selectivity indices against all the kinases tested [4] | Selectivity index (IC50 for p38α/IC50 for ALK5) (p38α) | fold less selective against p38α than vactosertib (p38α) | fold more selective against p38α than galunisertib (p38α) | IC50 (p38α) | ALK5 inhibitory activity in a cell-based luciferase reporter assay (ALK5 [5]) | oral bioavailability [6] | ALK5 inhibitory activity in a kinase assay (ALK5 [7])
Cc1cccc(-c2[nH]c(Cc3cccc(C(N)=O)c3)nc2-c2ccc3nccnc3c2)n1 [Compound 11e, 3-((5-(6-Methylpyridin-2-yl)-4-(quinoxalin-6-yl)-1H-imidazol-2-yl)methyl)benzamide] | 56% and 56 ± 26.8% | 92 % inhibition | 8 ± 5.8 % control | 19.6 nM | 36 nM | 6.6 fold | 13 nM | > 100 | 22 | 6.2 fold | 5.5 fold | 288 nM | – | – | –
Cc1cccc(-c2nn3c(c2-c2ccnc4ccc(C(N)=O)cc24)CCC3)n1 [Galunisertib (1), reference compound] | – | – | – | > 100 nM | – | – | – | – | – | – | – | 320 nM | – | – | –
Cc1cccc(-c2[nH]c(CNc3ccccc3F)nc2-c2ccc3ncnn3c2)n1 [Vactosertib (2), N-((4-([1,2,4]triazolo[1,5-a]pyridin-6-yl)-5-(6-methylpyridin-2-yl)-1H-imidazol-2-yl)methyl)-2-fluoroaniline] | – | – | – | – | – | – | – | – | – | – | – | – | subnanomolar | moderate | subnanomolar

— publication PMC7144182, “Synthesis, biological evaluation and molecular modelling of 2,4-disubstituted-5-(6-alkylpyridin-2-yl)-1H-imidazoles as ALK5 inhibitors” (Journal of Enzyme Inhibition and Medicinal Chemistry, 2020)
